Results published in US20250101034A1, “COMPOSITIONS USEFUL FOR MODULATING SPLICING” (SKYHAWK THERAPEUTICS, INC., priority 2021, published 2025).

Columns and labels:
total ATXN3 protein = experiment: ATXN3 total protein assay (MSD, SK-N-MC cells); format: cell-based, Human; conditions: 48 hours incubation, read-out: ATXN3 Potency - Protein IC50
Description: Human neuroblastoma SK-N-MC cells were seeded at 10,000 cells/well in 384 well plates one day prior to compound treatment. The concentrations of compounds were tested at appropriate doses ranging from 30 μM to 0.6 nM. After incubation for 48 hours, the cells were lysed with 25 μL of lysis buffer containing protease inhibitors, and total ATXN3 protein levels were assessed by Mesoscale Discovery (MSD) assay developed with one pair of anti-ATXN3 antibodies. The capture and detect antibodies were raised in mouse and rabbit respectively. Anti-rabbit MSD-ST antibody was used for secondary antibody.
ATXN3 recombinant protein was used for standards. The readouts were captured with 35 μL of MSD read buffer and multi-array 384-well high binding plates.

[1] = tested on: ATXN3 transcripts containing exon 4 (E4E5); experiment: ATXN3 quantitative splicing assay (qPCR, SK-N-MC cells); format: cell-based; conditions: Homo sapiens, 24 h treatment, qPCR E4E5 primers/probe, read-out: ATXN3 Potency - Splicing E4E5 IC50
Description: Human neuroblastoma SK-N-MC cells were plated in 384-well plates at 20,000 cells/well. Twenty-four hours after plating, cells were treated with compounds for 24 h at appropriate concentrations ranging from 30 μM to 0.6 nM (0.3% DMSO). Treated cells were lysed in 15 μL of lysis buffer, and cDNA was synthesized using the Fast Advanced Cells-to-Ct kit. Two μL of each cDNA was used in qPCR reactions to confirm the exon 4 skipped transcripts of ATXN3. A second set of primers/probe E4E5 was used to detect the transcripts containing exon 4. The third set of primers/probe E8E9 was used to detect total gene level of ATXN3. The qPCR reactions were prepared in 384-well plates in 10 μL volume, using TaqMan™ Fast Advanced Master Mix with primers and probes shown in the table below. Reactions were run in a Quant Studio 6 qPCR instrument with default settings.
The primers and probes are listed below in Table 4.

Row | Structure (SMILES) | IC50 (total ATXN3 protein) | IC50 [1]
1 | Cc1c([C@H](O)[C@H](C)N)sc2c(NCc3cccs3)cnnc12 (single isomer, unassigned) [Compound 41] | 10 to 40 µM | 10 to 40 µM
2 | Cc1c([C@@H](O)[C@H](C)N)sc2c(NCc3cccs3)cnnc12 (single isomer, unassigned) [Compound 42] | 5 to 10 µM | 5 to 10 µM
3 | Cc1c(C[C@@H](N)CO)sc2c(NCc3ccco3)cnnc12 [Compound 1, (2R)-2-amino-3-(4-{[(furan-2-yl)methyl]amino}-7-methylthieno[3,2-c]pyridazin-6-yl)propan-1-ol] | 0.501 to 5 µM | 0.501 to 5 µM
4 | Cc1c(C[C@H](C)N)sc2c(NCc3ccco3)cnnc12 [Compound 2, 6-[(2S)-2-aminopropyl]-N-(furan-2-ylmethyl)-7-methylthieno[3,2-c]pyridazin-4-amine] | 0.501 to 5 µM | 0.501 to 5 µM
5 | Cc1c(C[C@@H](N)CO)sc2c(NCc3cccs3)cnnc12 [Compound 3, (2R)-2-amino-3-{7-methyl-4-[(thiophen-2-ylmethyl)amino]thieno[3,2-c]pyridazin-6-yl}propan-1-ol] | 0.501 to 5 µM | 0.501 to 5 µM
6 | Cc1c(C[C@H](C)N)sc2c(NCc3cccs3)cnnc12 [Compound 4, 6-[(2S)-2-aminopropyl]-7-methyl-N-(thiophen-2-ylmethyl)thieno[3,2-c]pyridazin-4-amine] | 0.101 to 0.5 µM | 0.501 to 5 µM
7 | Cc1c(C[C@@H](N)CO)sc2c(NCc3nccs3)cnnc12 [Compound 5, (2R)-2-amino-3-(7-methyl-4-{[(1,3-thiazol-2-yl)methyl]amino}thieno[3,2-c]pyridazin-6-yl)propan-1-ol] | 10 to 40 µM | 10 to 40 µM
8 | Cc1c(C[C@H](C)N)sc2c(NCc3nccs3)cnnc12 [Compound 6, 6-[(2S)-2-aminopropyl]-7-methyl-N-[(1,3-thiazol-2-yl)methyl]thieno[3,2-c]pyridazin-4-amine] | 0.501 to 5 µM | 0.501 to 5 µM
9 | Cc1c(C[C@@H](N)CO)sc2c(NCc3ccsc3)cnnc12 [Compound 7, (2R)-2-amino-3-(7-methyl-4-{[(thiophen-3-yl)methyl]amino}thieno[3,2-c]pyridazin-6-yl)propan-1-ol] | 0.501 to 5 µM | 0.501 to 5 µM
10 | Cc1c(C[C@H](C)N)sc2c(NCc3ccsc3)cnnc12 [Compound 8, 6-[(2S)-2-aminopropyl]-7-methyl-N-[(thiophen-3-yl)methyl]thieno[3,2-c]pyridazin-4-amine] | 0.501 to 5 µM | 0.501 to 5 µM
11 | Cc1c(C[C@@H](N)CO)sc2c(NCc3sccc3F)cnnc12 [Compound 9, (2R)-2-amino-3-(4-{[(3-fluorothiophen-2-yl)methyl]amino}-7-methylthieno[3,2-c]pyridazin-6-yl)propan-1-ol] | 10 to 40 µM | 10 to 40 µM
12 | Cc1c(C[C@H](C)N)sc2c(NCc3sccc3F)cnnc12 [Compound 10, 6-[(2S)-2-aminopropyl]-N-[(3-fluorothiophen-2-yl)methyl]-7-methylthieno[3,2-c]pyridazin-4-amine] | 0.501 to 5 µM | 0.501 to 5 µM
13 | Cc1csc2c(NCc3ccco3)cnnc12 [Compound 11, N-[(furan-2-yl)methyl]-7-methylthieno[3,2-c]pyridazin-4-amine] | 10 to 40 µM | 10 to 40 µM
14 | Cc1csc2c(NCc3nccs3)cnnc12 [Compound 12, 7-methyl-N-[(1,3-thiazol-2-yl)methyl]thieno[3,2-c]pyridazin-4-amine] | 10 to 40 µM | 10 to 40 µM
15 | Cc1c(C[C@H](C)N)sc2c(NCn3cccn3)cnnc12 [Compound 15, 6-[(2S)-2-aminopropyl]-7-methyl-N-[(1H-pyrazol-1-yl)methyl]thieno[3,2-c]pyridazin-4-amine] | 0.501 to 5 µM | 0.501 to 5 µM
16 | Cc1c(C[C@H](C)N)sc2c(NCc3ccc(F)s3)cnnc12 [Compound 16, 6-[(2S)-2-aminopropyl]-N-[(5-fluorothiophen-2-yl)methyl]-7-methylthieno[3,2-c]pyridazin-4-amine] | 0.501 to 5 µM | 0.501 to 5 µM
17 | Cc1c(C[C@H](C)N)sc2c(NCc3ccsc3F)cnnc12 [Compound 17, 6-[(2S)-2-aminopropyl]-N-[(2-fluorothiophen-3-y1)methyl]-7-methylthieno[3,2-c]pyridazin-4-amine] | 10 to 40 µM | 5 to 10 µM
18 | Cc1c(C[C@H](C)N)sc2c(NCc3ccns3)cnnc12 [Compound 18, 6-[(2S)-2-aminopropyl]-7-methyl-N-[(1,2-thiazol-5-yl)methyl]thieno[3,2-c]pyridazin-4-amine] | 10 to 40 µM | 10 to 40 µM
19 | Cc1nnc2c(C)c(C[C@H](C)N)sc2c1NCc1cccs1 [Compound 19, 6-[(2S)-2-aminopropyl]-3,7-dimethyl-N-[(thiophen-2-yl)methyl]thieno[3,2-c]pyridazin-4-amine] | 10 to 40 µM | 10 to 40 µM
20 | Cc1c(C[C@@H](N)CC(C)C)sc2c(NCc3ccco3)cnnc12 [Compound 20, 6-[(2S)-2-amino-4-methylpentyl]-N-[(furan-2-y1)methyl]-7-methylthieno[3,2-c]pyridazin-4-amine] | 5 to 10 µM | 5 to 10 µM
21 | Cc1c(CCN)sc2c(NCc3ccco3)cnnc12 [Compound 21, 6-(2-aminoethyl)-N-[(furan-2-yl)methyl]-7-methylthieno[3,2-c]pyridazin-4-amine] | 10 to 40 µM | 10 to 40 µM
22 | COc1c(C[C@H](C)N)sc2c(NCc3cccs3)cnnc12 [Compound 22, (S)-6-(2-aminopropyl)-7-methoxy-N-(thiophen-2-ylmethyl)thieno[3,2-c]pyridazin-4-amine] | 0.501 to 5 µM | 0.501 to 5 µM
23 | CCc1c(C[C@H](C)N)sc2c(NCc3cccs3)cnnc12 [Compound 23, 6-[(2S)-2-aminopropyl]-7-ethyl-N-[(thiophen-2-yl)methyl]thieno[3,2-c]pyridazin-4-amine] | 5 to 10 µM | 5 to 10 µM
24 | C[C@H](N)Cc1sc2c(NCc3cccs3)cnnc2c1C#N [Compound 24, (S)-6-(2-aminopropyl)-4-((thiophen-2-ylmethyl)amino)thieno[3,2-c]pyridazine-7-carbonitrile] | 0.501 to 5 µM | 0.501 to 5 µM
25 | Cc1c(C[C@@H]2CCCN2)sc2c(NCc3cccs3)cnnc12 [Compound 70, 7-methyl-6-{[(2S)-pyrrolidin-2-yl]methyl}-N-[(thiophen-2-yl)methyl]thieno[3,2-c]pyridazin-4-amine] | 10 to 40 µM | 
26 | Cc1ccc(CNc2cnnc3c(C)c(C[C@H](C)N)sc23)s1 [Compound 77, 6-[(2S)-2-aminopropyl]-7-methyl-N-[(5-methylthiophen-2-yl)methyl]thieno[3,2-c]pyridazin-4-amine] | 10 to 40 µM | 
27 | Cc1ccsc1CNc1cnnc2c(C)c(C[C@H](C)N)sc12 [Compound 78, 6-[(2S)-2-aminopropyl]-7-methyl-N-[(3-methylthiophen-2-yl)methyl]thieno[3,2-c]pyridazin-4-amine] | 10 to 40 µM | 
28 | Cc1csc(CNc2cnnc3c(C)c(C[C@H](C)N)sc23)c1 [Compound 79, 6-[(2S)-2-aminopropyl]-7-methyl-N-[(4-methylthiophen-2-yl)methyl]thieno[3,2-c]pyridazin-4-amine] | 10 to 40 µM | 
29 | CC(=O)CCc1sc2c(NCc3cccs3)cnnc2c1C [Compound 88, 4-{7-methyl-4-[(thiophen-2-ylmethyl)amino]thieno[3,2-c]pyridazin-6-yl}butan-2-one] | 10 to 40 µM | 
